Assay results reported in PMC13266999, “Designing Antibiotics with Inherent Resistance to Efflux as a Strategy to Revive Discovery against Multidrug-Resistant Pathogens” (Journal of Medicinal Chemistry, 2026).
Values after ≈ are worked out from the molar mass of the structure shown.

Experiments:
S. aureus [1] = assay: MIC (microbroth dilution); assay type: cell-based, Staphylococcus aureus; conditions: for MIC: Staphylococcus aureus
Outline: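 Broth microdilution MICs, defined as lowest compound level without visible growth (OD600 read), on bacteria grown overnight to stationary phase then diluted. Twofold compound dilutions; some wells also received PMBN, final 30 μg/mL, to permeabilize the outer membrane.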

Pharmacokinetics = conditions: male, ICR (CD-1), mouse, plasma
Procedure: Pharmacokinetic studies were performed in male ICR (CD-1) mice obtained from Charles River, UK. […] Blood samples were collected from the caudal vein into anticoagulant-treated capillaries at predetermined time points up to 8 h, with terminal cardiac puncture at 8 h. Plasma samples were stored at −80 °C until analysis. […] A compound-specific LC-MS/MS method was developed for each test article using matrix-matched calibrators following protein precipitation of samples.

S. aureus [2] = assay: Serial passaging, MIC of adapted strains; assay type: cell-based; conditions: Staphylococcus aureus
Procedure: MICs were performed on the first and 10th passage.

SMILES: Cc1cc(C)nc(N[C@@H]2CCN(c3c(F)cc4c(=O)c(C(=O)O)cn5c4c3OC[C@@H]5C)C2)n1 [Compound 50, (S)-10-((R)-3-((4,6-Dimethylpyrimidin-2-yl)amino)pyrrolidin-1-yl)-9-fluoro-3-methyl-7-oxo-2,3-dihydro-7H-[1,4]oxazino[2,3,4-ij]quinoline-6-carboxylic acid]
- MIC (S. aureus [1]; MRSA / USA300, USA300 MRSA (FPR3757), read-out: MIC): 0.5 µg/mL (≈ 1.1 µM)
- MIC (S. aureus [1]; MRSA / USA300, USA300 MRSA (TCH1516), read-out: MIC): 0.03 µg/mL (≈ 0.0662 µM)
- MIC (S. aureus [1]; MRSA / USA400, USA400 MRSA (MW2), read-out: MIC): 0.03 µg/mL (≈ 0.0662 µM)
- MIC (S. aureus [1]; MRSA / VISA, MRSA VISA (CDC #0219), read-out: MIC): 4 µg/mL (≈ 8.82 µM)
- MIC (S. aureus [1]; MRSA / VISA, MRSA VISA (CDC #0220), read-out: MIC): 1 µg/mL (≈ 2.21 µM)
- MIC (S. aureus [1]; MRSA / VISA, MRSA VISA (CDC #0221), read-out: MIC): 0.5 µg/mL (≈ 1.1 µM)
- MIC (S. aureus [1]; MRSA / VISA, MRSA VISA (CDC #0223), read-out: MIC): 1 µg/mL (≈ 2.21 µM)
- MIC (S. aureus [1]; MRSA / VISA, MRSA VISA (CDC #0225), read-out: MIC): 1 µg/mL (≈ 2.21 µM)
- MIC (S. aureus [1]; MRSA / VISA, MRSA VISA (CDC #0226), read-out: MIC): 0.03 µg/mL (≈ 0.0662 µM)
- MIC (S. aureus [1]; MRSA / VISA, MRSA VISA (CDC #0227), read-out: MIC): 1 µg/mL (≈ 2.21 µM)
- MIC (S. aureus [1]; MRSA / VISA, MRSA VISA (CDC AR-BANK #0215), read-out: MIC): 16 µg/mL (≈ 35.3 µM)
- MIC (S. aureus [1]; MRSA / VISA, MRSA VISA (CDC AR-BANK #0216), read-out: MIC): 0.5 µg/mL (≈ 1.1 µM)
- MIC (S. aureus [1]; MRSA / VISA, MRSA VISA (CDC AR-BANK #0217), read-out: MIC): 1 µg/mL (≈ 2.21 µM)
- MIC (S. aureus [1]; MRSA / VISA, MRSA VISA (Mu50), read-out: MIC): 2 µg/mL (≈ 4.41 µM)
- MIC (S. aureus [1]; MRSA / VISA, MRSA VISA Mupirocin-R (CDC #0218), read-out: MIC): 1 µg/mL (≈ 2.21 µM)
- MIC (S. aureus [1]; MRSA, MRSA DAP-NS (ECL 2963621), read-out: MIC): 0.25 µg/mL (≈ 0.551 µM)
- MIC (S. aureus [1]; MRSA, VanA MRSA (VRS1), read-out: MIC): 1 µg/mL (≈ 2.21 µM)
- MIC (S. aureus [1]; MRSA, VanA MRSA (VRS2), read-out: MIC): 0.5 µg/mL (≈ 1.1 µM)
- MIC (S. aureus [1]; MRSA, VanA MRSA (VRS3a), read-out: MIC): 0.5 µg/mL (≈ 1.1 µM)
- MIC (S. aureus [1]; MSSA / VISA, MSSA VISA (CDC #0222), read-out: MIC): 0.03 µg/mL (≈ 0.0662 µM)
- MIC (S. aureus [1]; NCTC13277, NCTC 13277, + 4% albumin, read-out: MIC): 4 µg/mL
- MIC (S. aureus [1]; NCTC13616, NCTC 13616, + 4% albumin, read-out: MIC): 2 µg/mL
- MIC (S. aureus [1]; NRS 3 / VISA, VISA (NRS3), read-out: MIC): 0.5 µg/mL (≈ 1.1 µM)
- MIC (S. aureus [1]; NRS 12 / VISA, VISA (NRS12), read-out: MIC): 0.06 µg/mL (≈ 0.132 µM)
- MIC (S. aureus [1]; NRS 56 / VISA, VISA (NRS56), read-out: MIC): 1 µg/mL (≈ 2.21 µM)
- MIC (S. aureus [1]; NRS72, Sanger-476, NRS72, read-out: MIC): 0.03 µg/mL (≈ 0.0662 µM)
- MIC (S. aureus [1]; NRS157, NRS157, read-out: MIC): 0.03 µg/mL (≈ 0.0662 µM)
- MIC (S. aureus [1]; SA-1199, read-out: MIC): 0.016 µg/mL (≈ 0.0353 µM)
- MIC (S. aureus [1]; SA-1199B (NorA-overexpressing)): 0.016 µg/mL (≈ 0.0353 µM)
- MIC (S. aureus [1]; VRSA, VRSA (ECL 2963646), read-out: MIC): 0.5 µg/mL (≈ 1.1 µM)
- MIC (S. aureus [1]; VanA (VRS11b), read-out: MIC): 2 µg/mL (≈ 4.41 µM)
- MIC (S. aureus [1]; majority of MSSA and MRSA isolates, read-out: MIC): ≤ 0.0312 µg/mL
- fold increase in MIC in the presence of 4% albumin (S. aureus [1]; across the strain panel): 2- to 8 fold
- AUC(0-inf) (Pharmacokinetics; iv, 5 mg/kg): 33100 ng·h/mL
- clearance (Pharmacokinetics; iv, 5 mg/kg): 2.52 mL/min/kg
- Cmax (Pharmacokinetics; po, 20 mg/kg): 14500 ng/mL
- Tmax (Pharmacokinetics; po, 20 mg/kg): 30 min
- bioavailability (Pharmacokinetics; po, 20 mg/kg): 83%
- MIC (S. aureus [2]; 1199B WT): 0.03 µg/mL
- MIC (S. aureus [2]; 1199B adapted to 4 x MIC of Compound 7): ≤ 0.015 µg/mL
- MIC (S. aureus [2]; 1199B adapted to 4 x MIC of Compound 46): 0.125 µg/mL
- MIC (S. aureus [2]; 1199B adapted to 4 x MIC of Compound 50): 0.25 µg/mL
- MIC (S. aureus [2]; 1199B adapted to 4 x MIC of Compound 51): 0.03 µg/mL
- MIC (S. aureus [2]; 1199 WT): 0.015 µg/mL
- MIC (S. aureus [2]; 1199 adapted to 4 x MIC of Compound 7): 0.03 µg/mL
- MIC (S. aureus [2]; 1199 adapted to 4 x MIC of Compound 46): ≤ 0.015 µg/mL
- MIC (S. aureus [2]; 1199 adapted to 4 x MIC of Compound 50): 0.125 µg/mL
- MIC (S. aureus [2]; 1199 adapted to 4 x MIC of Compound 51): ≤ 0.015 µg/mL
- MIC (S. aureus [2]; NCTC13616, NCTC 13616 WT): 0.125 µg/mL
- MIC (S. aureus [2]; NCTC13616, NCTC 13616 adapted to 4 x MIC of Compound 7): 0.5 µg/mL
- MIC (S. aureus [2]; NCTC13616, NCTC 13616 adapted to 4 x MIC of Compound 46): 0.25 µg/mL
- MIC (S. aureus [2]; NCTC13616, NCTC 13616 adapted to 4 x MIC of Compound 50): 0.5 µg/mL
- MIC (S. aureus [2]; NCTC13616, NCTC 13616 adapted to 4 x MIC of Compound 51): 1 µg/mL
